Results taken from publication PMC10317891, “Fibroblast activation protein targeted radiotherapy induces an immunogenic tumor microenvironment and enhances the efficacy of PD-1 immune checkpoint inhibition” (European Journal of Nuclear Medicine and Molecular Imaging, 2023).
Numbered stars: 1 amine (or outer) side, 2 acyl side, 3 side chain; on linkers, the order of the positions; unused ones are H or OH. Bridge positions count the residues as written; N and C are the ends. Peptide text beside a SMILES is read from it. * marks the point of attachment. X1 = O=C(O)CN1CCN(CC(=O)O)CCN(CC(=O)N2CCN(Cc3cc(C[*:1])cc(C[*:2])c3)CC2)CCN(CC(=O)O)CC1; Hexanoyl = CCCCCC(=O)*

Assay: Plasma stability
Type: in vitro ADME
Conditions: 10 µM, 37°C, UHPLC-QTOF MS with internal standard
Experimental: FAP-2287 was incubated in 50 µL of plasma with 3.8% sodium citrate as anticoagulant at a concentration of 10 µM. After 1, 2, 4, and 24 hours incubation at 37°C a suitable internal standard was added. FAP-2287 with plasma proteins were precipitated using 250 µL of a precipitation agent consisting of 1% trifluoroacetic acid in acetonitrile. Precipitation was carried out at room temperature for 30 minutes. After centrifugation at 18,200 relative centrifugal force (rcf) for 5 minutes, 100 µL of the supernatant was mixed with 100 µL of 1% formic acid.
A nonincubated plasma sample spiked with 10 µM sample concentration was prepared in the same way and was used as the reference. A pure plasma sample was incubated for 24 hours as a blank sample. A further pure plasma sample was incubated for 24 hours, processed as described above and spiked directly before analysis to determine the recovery. The samples were analyzed using an Agilent 1290 UHPLC system coupled to an Agilent 6530 QTOF mass spectrometer.
For the quantitative data analysis, the Agilent Quantitative Analysis B.08.00 software (RRID:SCR_015040) was used. The ion currents of the triply charged proton adducts of the compounds were extracted with a mass window of ±50 parts per million and the chromatographic peak was integrated. The concentration of the compound was determined by external matrix calibration with internal standard using 6 calibration samples (1, 2.5, 5, 7.5, 10, and 12.5 µM). A quadratic regression was performed. Carryover was determined by analyzing the blank sample directly after the highest calibration sample and comparing the determined peak areas. Recovery was calculated as the ratio between the spiked concentration of the recovery sample and the concentration calculated from the peak area of this sample.

CCCCCC(=O)N[C@H]1CSCc2cc(cc(CN3CCN(C(=O)CN4CCN(CC(=O)O)CCN(CC(=O)O)CCN(CC(=O)O)CC4)CC3)c2)CSC[C@@H](C(=O)N[C@@H](CC(=O)O)C(N)=O)NC(=O)[C@H](Cc2ccccc2)NC(=O)[C@H](CCC(N)=O)NC(=O)[C@H]([C@@H](C)O)NC(=O)[C@@H]2CCCN2C(=O)[C@@H]2CCCN2C1=O [FAP-2287] (Hexanoyl-CPPTQFCD-NH2; linker 1-7 via X1)
Plasma Stability (24 h) Human Plasma (human plasma with 3.8% sodium citrate): > 80%
Plasma Stability (24 h) Mouse Plasma (mouse plasma with 3.8% sodium citrate): > 80%
